Paper PMC8067507, “Aryl Urea Based Scaffolds for Multitarget Drug Discovery in Anticancer Immunotherapies” (Pharmaceuticals, 2021)

Assays:
PD-L1 [1] = biological target: T1, PD-L1 (Homo sapiens, UniProt Q9NZQ7); assay: PD-L1 quantification by flow cytometry in A-549; format: cell-based; set-up: endogenous in cells; host or cells: A-549 cancer cells; conditions: A-549, 10 μM, 24 h, referred to control (DMSO)
Experimental: (§1) We evaluated the effect of the selected compounds on PD-L1 and on c-Myc proteins by flow cytometry after 24 h treatment at 10 μM concentration of compounds. Both, PD-L1 and c-Myc were relatively determined using DMSO treated cells as a negative control and BMS-8 as a positive one.
(§2) For the detection of total PD-L1 and c-Myc, cancer cells were seeded (3 × 10^5 cells/well) in 6-well plates and were incubated with the corresponding compounds for 24 h. Then they were collected, fixed, treated with 0.5% Triton^TM X-100 and stained with Alexa Fluor® 647 Rabbit monoclonal Anti-PD-L1 (ab215251) and FITC Rabbit monoclonal anti-c-Myc (ab223913).
(§3) We also checked results performing ELISA tests. For ELISA tests, lysates were collected, protein quantification was carried out by Bradford test and, then, PD-L1 and c-Myc were quantified using Human PD-L1 ELISA Kit 28-8 (ab214565) and c-Myc (Total) Human ELISA Kit (KHO2041), respectively, according to the manufacturer’s instructions.

PD-L1 [2] = biological target: T1, PD-L1; assay: PD-L1 quantification by flow cytometry in HT-29; format: cell-based; conditions: HT-29, 10 μM, 24 h, referred to control (DMSO)
Experimental: as §1, §2, §3

VEGFR-2 [3] = biological target: T2, VEGFR-2 (Homo sapiens, UniProt P35968); assay: VEGFR-2 quantification by flow cytometry in HMEC-1; format: cell-based; set-up: Both membrane and total VEGFR-2 were relatively determined using dimethyl sulfoxide (DMSO) treated cells as a negative control; endogenous in cells; host or cells: HMEC-1 (human microvascular endothelial cells); conditions: 10 µM, 24 h, relative to DMSO control
T2 sequence (P35968 20-1356): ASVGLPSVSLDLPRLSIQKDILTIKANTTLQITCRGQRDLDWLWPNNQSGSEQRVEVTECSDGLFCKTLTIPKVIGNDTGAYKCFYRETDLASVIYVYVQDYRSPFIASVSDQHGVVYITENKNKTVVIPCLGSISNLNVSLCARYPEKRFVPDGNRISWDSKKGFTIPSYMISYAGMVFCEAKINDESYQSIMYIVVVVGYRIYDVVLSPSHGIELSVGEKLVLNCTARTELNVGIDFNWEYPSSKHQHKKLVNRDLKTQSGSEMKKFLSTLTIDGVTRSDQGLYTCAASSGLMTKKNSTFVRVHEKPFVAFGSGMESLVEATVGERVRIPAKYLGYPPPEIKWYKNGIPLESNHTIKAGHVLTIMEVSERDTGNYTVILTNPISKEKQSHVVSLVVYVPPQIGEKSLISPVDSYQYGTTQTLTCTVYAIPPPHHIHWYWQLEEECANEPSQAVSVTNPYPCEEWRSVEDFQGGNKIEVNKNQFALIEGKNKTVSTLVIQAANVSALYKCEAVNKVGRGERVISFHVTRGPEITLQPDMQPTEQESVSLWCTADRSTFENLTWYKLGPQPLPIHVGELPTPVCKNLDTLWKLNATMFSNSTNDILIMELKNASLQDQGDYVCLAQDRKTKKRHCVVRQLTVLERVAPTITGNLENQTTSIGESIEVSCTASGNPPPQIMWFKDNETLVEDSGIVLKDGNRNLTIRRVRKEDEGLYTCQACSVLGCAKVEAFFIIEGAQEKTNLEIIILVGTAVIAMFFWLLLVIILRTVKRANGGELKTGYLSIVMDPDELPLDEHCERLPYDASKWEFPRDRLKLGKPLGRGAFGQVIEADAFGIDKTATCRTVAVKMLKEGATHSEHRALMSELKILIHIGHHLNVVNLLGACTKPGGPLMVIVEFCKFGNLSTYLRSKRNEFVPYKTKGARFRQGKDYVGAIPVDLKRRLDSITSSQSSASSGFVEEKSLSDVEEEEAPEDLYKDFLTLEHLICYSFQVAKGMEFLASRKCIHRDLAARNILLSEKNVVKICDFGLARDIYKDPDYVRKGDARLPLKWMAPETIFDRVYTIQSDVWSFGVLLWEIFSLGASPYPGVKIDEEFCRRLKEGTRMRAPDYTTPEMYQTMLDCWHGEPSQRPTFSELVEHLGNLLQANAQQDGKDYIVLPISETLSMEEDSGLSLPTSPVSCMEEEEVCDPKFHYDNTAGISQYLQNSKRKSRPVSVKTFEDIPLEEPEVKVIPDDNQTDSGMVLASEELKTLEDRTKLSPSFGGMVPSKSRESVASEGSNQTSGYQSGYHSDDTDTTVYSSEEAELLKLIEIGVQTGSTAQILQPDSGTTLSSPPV
Experimental: (§7) We performed the study on both a HT-29 cancer cell line and a human microvessel endothelial cell line (HMEC-1). […] The effect of these selected derivatives on VEGFR-2, on HT-29 tumor cell line and on human microvessel endothelial cells (HMEC) was determined by flow cytometry technique. […] For these assays, cells were incubated for 24 h in the presence of the corresponding compounds at 10 µM concentration.

c-Myc [4] = assay: c-Myc quantification by flow cytometry in A-549; format: cell-based, human; conditions: A-549, 10 μM, 24 h, referred to control (DMSO)
Experimental: as §1, §2, §3

VEGFR-2 [5] = biological target: T2, VEGFR-2; assay: VEGFR-2 quantification by flow cytometry in HT-29; format: cell-based; set-up: Both membrane and total VEGFR-2 were relatively determined using dimethyl sulfoxide (DMSO) treated cells as a negative control; endogenous in cells; host or cells: HT-29 (colon adenocarcinoma) and HMEC-1 (human microvascular endothelial cells); conditions: HT-29, 10 µM, 24 h, relative to DMSO control
Experimental: as §7

c-Myc [6] = assay: c-Myc quantification by flow cytometry in HT-29; format: cell-based, human; conditions: HT-29, 10 μM, 24 h, referred to control (DMSO)
Experimental: as §1, §2, §3

[7] = test system: HMEC-1 (human microvascular endothelial cells); assay: Cell proliferation assay (MTT); format: cell-based; conditions: HMEC-1, 48 h, 2 days incubation, average ± SD of three experiments
Source text: (§4) The ability of Ureas 13–33 to inhibit cell proliferation was established by means of their IC50 values towards the human tumor cell lines HT-29 (colon adenocarcinoma), MCF-7 (breast adenocarcinoma), HeLa (epithelioid cervix carcinoma) and A549 (pulmonary adenocarcinoma), as well as towards the endothelial cell line HMEC-1 (human microvascular endothelial cells) and the non-tumor cell line HEK-293 (human embryonic kidney cells).
(§5) HT-29, MCF-7, HeLa, A549 and HEK-293 cell lines were maintained in Dulbecco’s modified Eagle’s medium (DMEM) containing glucose (1 g/L), glutamine (2 mM), penicillin (50 μg/mL), streptomycin (50 μg/mL), and amphotericin B (1.25 μg/mL), supplemented with 10% FBS. HMEC-1 cell line was maintained in Dulbecco’s modified Eagle’s medium (DMEM)/low glucose containing glutamine (2 mM), penicillin (50 μg/mL), streptomycin (50 μg/mL), and amphotericin B (1.25 μg/mL), supplemented with 10% FBS. For the development of tube formation assays in Matrigel, HMEC-1 cells were cultured in EGM-2MV Medium supplemented with EGM-2MV SingleQuots.
(§6) In 96-well plates, 3 × 10^3 (HeLa, A549, HMEC-1, HEK-293) or 5 × 10^3 (HT-29, MCF-7) cells per well were incubated with serial dilutions of the tested compounds in a total volume of 100 μL of their respective growth media. The 3-(4,5-dimethylthiazol-2-yl)-2,5-diphenyltetrazolium bromide (MTT; Sigma Chemical Co.) dye reduction assay in 96-well microplates was used. After 2 days of incubation (37 °C, 5% CO2 in a humid atmosphere), 10 μL of MTT (5 mg/mL in phosphate-buffered saline, PBS) was added to each well, and the plate was incubated for a further 3 h (37 °C). After that, the supernatant was discarded and replaced by 100 µL of DMSO to dissolve formazan crystals. The absorbance was then read at 540 nm by spectrophotometry. For all concentrations of compound, cell viability was expressed as the percentage of the ratio between the mean absorbance of treated cells and the mean absorbance of untreated cells. Three independent experiments were performed, and the IC50 values (i.e., concentration half inhibiting cell proliferation) were graphically determined using GraphPad Prism 4 software.

[8] = test system: HeLa (epithelioid cervix carcinoma); assay: Cell proliferation assay (MTT); format: cell-based; conditions: Homo sapiens, 48 h, 2 days incubation, average ± SD of three experiments
Source text: as §4, §5, §6

[9] = test system: A549 (pulmonary adenocarcinoma); assay: Cell proliferation assay (MTT); format: cell-based; conditions: Homo sapiens, A549, 48 h, 2 days incubation, average ± SD of three experiments
Source text: as §4, §5, §6

[10] = test system: HT-29 (colon adenocarcinoma); assay: Cell proliferation assay (MTT); format: cell-based; conditions: Homo sapiens, HT-29, 48 h, 2 days incubation, average ± SD of three experiments
Source text: as §4, §5, §6

[11] = test system: HEK-293 (human embryonic kidney cells); assay: Cell proliferation assay (MTT); format: cell-based; conditions: HEK293, 48 h, 2 days incubation, average ± SD of three experiments
Source text: as §4, §5, §6

[12] = test system: MCF-7 (breast adenocarcinoma); assay: Cell proliferation assay (MTT); format: cell-based; conditions: Homo sapiens, MCF7, 48 h, 2 days incubation, average ± SD of three experiments
Source text: as §4, §5, §6

T1 sequence (Q9NZQ7 19-290): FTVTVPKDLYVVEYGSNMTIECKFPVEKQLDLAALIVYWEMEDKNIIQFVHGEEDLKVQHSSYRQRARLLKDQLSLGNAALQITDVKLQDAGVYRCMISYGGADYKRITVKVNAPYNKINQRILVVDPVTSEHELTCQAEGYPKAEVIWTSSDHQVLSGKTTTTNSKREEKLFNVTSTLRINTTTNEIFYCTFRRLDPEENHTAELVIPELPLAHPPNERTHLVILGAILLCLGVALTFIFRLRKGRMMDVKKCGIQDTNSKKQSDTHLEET

Compound | PD-L1 (%) relative expression (PD-L1 [1]) | PD-L1 (%) relative expression (PD-L1 [2]) | Membrane VEGFR-2 (%) (VEGFR-2 [3]) | Total VEGFR-2 (%) (VEGFR-2 [3]) | c-Myc (%) relative expression (c-Myc [4]) | Membrane VEGFR-2 (%) (VEGFR-2 [5]) | Total VEGFR-2 (%) (VEGFR-2 [5]) | c-Myc (%) relative expression (c-Myc [6]) | IC50 [7] | IC50 [8] | IC50 [9] | IC50 [10] | IC50 [11] | IC50 [12]
COc1ccc(CCc2cccc(NC(=O)Nc3cccc(OC)c3)c2)cc1 [Compound 32] | 59 ± 9% | 55 ± 11% | 69 ± 8% | 98 ± 13% | 77 ± 15% | 76 ± 5% | 93 ± 10% | 69 ± 7% | 7.1 ± 0.8 µM | 27 ± 1 µM | 18 ± 3 µM | 22 ± 2 µM | 9.7 ± 0.8 µM | 25 ± 4 µM
COc1ccc(/C=C/c2cccc(NC(=O)Nc3ccccc3Br)c2)cc1 [Compound 21] | – | – | – | – | – | – | – | – | 1.9 ± 0.4 µM | 1.7 ± 0.4 µM | 3 ± 1 µM | 1.6 ± 0.2 µM | 2 ± 0.2 µM | 1.6 ± 0.3 µM
COc1ccc(/C=C/c2cccc(NC(=O)Nc3ccccc3)c2)cc1 [Compound 20] | – | – | – | – | – | – | – | – | 4 ± 1 µM | 42 ± 8 µM | 1.6 ± 0.3 µM | 2.5 ± 0.8 µM | 15 ± 2 µM | 2.3 ± 0.9 µM
COc1ccc(/C=C/c2cccc(NC(=O)Nc3cccc(Br)c3)c2)cc1 [Compound 22] | – | – | – | – | – | – | – | – | 1.1 ± 0.2 µM | 1.5 ± 0.3 µM | 4 ± 3 µM | 0.5 ± 0.2 µM | 0.7 ± 0.3 µM | 0.6 ± 0.3 µM
COc1ccc(/C=C\c2cccc(NC(=O)Nc3cccc(OC)c3)c2)cc1 [Compound 18] | – | – | – | – | – | – | – | – | 4.3 ± 0.3 µM | 24 ± 5 µM | 23 ± 8 µM | 17 ± 4 µM | 16 ± 3 µM | 19 ± 2 µM
COc1ccc(CCc2cccc(NC(=O)Nc3ccccc3Br)c2)cc1 [Compound 28] | – | – | – | – | – | – | – | – | 5 ± 3 µM | 4 ± 3 µM | 7 ± 4 µM | 7.9 ± 0.5 µM | 1.7 ± 0.2 µM | 5 ± 4 µM
COc1ccc(/C=C\c2cccc(NC(=O)Nc3ccccc3OC)c2)cc1 [Compound 17] | 79 ± 9% | 60 ± 12% | 99 ± 7% | 97 ± 9% | 45± 9% | 47 ± 16% | 98 ± 12% | 58 ± 13% | 10 ± 1 µM | 15 ± 2 µM | 18 ± 1 µM | 15 ± 1 µM | 27 ± 5 µM | 15 ± 1 µM
COc1ccc(CCc2cccc(NC(=O)Nc3cccc(Br)c3)c2)cc1 [Compound 29] | – | – | – | – | – | – | – | – | 3.8 ± 0.3 µM | 10.7 ± 0.5 µM | 13 ± 3 µM | 11 ± 2 µM | 7.2 ± 0.4 µM | 10 ± 4 µM
COc1ccc(/C=C\c2cccc(NC(=O)Nc3ccccc3Br)c2)cc1 [Compound 14] | – | – | – | – | – | – | – | – | 14 ± 2 µM | 26 ± 3 µM | 32 ± 14 µM | 17 ± 2 µM | 25 ± 3 µM | 25 ± 10 µM
COc1ccc(/C=C/c2cccc(NC(=O)Nc3ccccc3OC)c2)cc1 [Compound 24] | – | – | – | – | – | – | – | – | 7.2 ± 0.6 µM | 9 ± 4 µM | 11 ± 5 µM | 11 ± 4 µM | 3.5 ± 0.8 µM | 3.6 ± 0.6 µM
COc1ccc(/C=C\c2cccc(NC(=O)Nc3ccccc3)c2)cc1 [Compound 13] | – | – | – | – | – | – | – | – | 40 ± 5 µM | 32 ± 8 µM | 34 ± 2 µM | 24 ± 5 µM | 16 ± 3 µM | 30 ± 7 µM
COc1ccc(CCc2cccc(NC(=O)Nc3ccc(Br)cc3)c2)cc1 [Compound 30] | – | – | – | – | – | – | – | – | 1.3 ± 0.1 µM | 3.7 ± 0.3 µM | 11 ± 5 µM | 4.9 ± 0.8 µM | 1.3 ± 0.5 µM | 4 ± 2 µM
COc1ccc(/C=C/c2cccc(NC(=O)Nc3cccc(OC)c3)c2)cc1 [Compound 25] | 59 ± 8% | 69 ± 11% | 59 ± 8% | 96 ± 9% | 68 ± 9% | 99 ± 11% | 94 ± 7% | 74 ± 11% | 4.3 ± 0.4 µM | 7 ± 0.5 µM | 2.2 ± 0.7 µM | 1.3 ± 0.5 µM | 4 ± 2 µM | 1.1 ± 0.2 µM
COc1ccc(/C=C\c2cccc(NC(=O)Nc3ccc(OC)cc3)c2)cc1 [Compound 19] | 98 ± 10% | 36 ± 9% | 98 ± 8% | 99 ± 16% | 79 ± 10% | 88 ± 14% | 97 ± 7% | 47 ± 8% | 11 ± 1 µM | 5 ± 2 µM | 12 ± 2 µM | 14 ± 3 µM | 10 ± 1 µM | 8 ± 3 µM
COc1ccc(CCc2cccc(NC(=O)Nc3ccccc3OC)c2)cc1 [Compound 31] | – | – | – | – | – | – | – | – | > 100 µM | 24 ± 2 µM | 24 ± 5 µM | 57 ± 6 µM | 13.8 ± 0.8 µM | 10 ± 5 µM
COc1ccc(CCc2cccc(NC(=O)Nc3ccccc3)c2)cc1 [Compound 27] | – | – | – | – | – | – | – | – | 9 ± 4 µM | 10 ± 2 µM | 12 ± 5 µM | 9.6 ± 0.6 µM | 12.5 ± 0.2 µM | 12.8 ± 0.9 µM
